Assay results reported in PubChem BioAssay (NCI).
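Step 1: Grow cells in 96-well plates. Step 2: Expose to compound for 48 hours at 5 concentrations. Step 3: Interpolate endpoints linearly; if unreached, use highest concentration. GI50 marks 50% less growth. TGI marks complete inhibition of growth.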

Columns and labels:
Test in all cases: inhibition of tumour cell growth, NCI panel, 48 h
786-0 renal = test system: 786-0 renal
HT29 colon = test system: HT29 colon
MOLT-4 leukemia = test system: MOLT-4 leukemia
OVCAR-4 ovarian = test system: OVCAR-4 ovarian
SF-295 CNS = test system: SF-295 CNS
SNB-75 CNS = test system: SNB-75 CNS
CAKI-1 renal = test system: CAKI-1 renal
SR leukemia = test system: SR leukemia
MCF7 breast = test system: MCF7 breast
MDA-MB-231 breast = test system: MDA-MB-231 breast

SMILES | TGI (786-0 renal) | TGI (HT29 colon) | TGI (MOLT-4 leukemia) | TGI (OVCAR-4 ovarian) | TGI (SF-295 CNS) | TGI (SNB-75 CNS) | TGI (CAKI-1 renal) | TGI (SR leukemia) | TGI (MCF7 breast) | TGI (MDA-MB-231 breast) | GI50 (786-0 renal) | GI50 (HT29 colon) | GI50 (MCF7 breast) | GI50 (MDA-MB-231 breast) | GI50 (MOLT-4 leukemia) | GI50 (OVCAR-4 ovarian) | GI50 (SF-295 CNS) | GI50 (SNB-75 CNS) | GI50 (CAKI-1 renal)
c1ccc(COc2cccc3cccnc23)cc1 | > 100 µM | > 100 µM | > 100 µM | > 100 µM | > 100 µM | > 100 µM |  |  |  |  |  |  |  |  |  |  |  |  | 
Cc1cccc(O)c(=O)c1 | > 100 µM | > 100 µM | > 100 µM | > 100 µM | > 100 µM | > 100 µM | > 100 µM | 80.6 µM |  |  |  |  |  |  |  |  |  |  | 
COC(=O)/C(=N/O)C(C(=O)OC)C(=O)C(=O)Nc1c(Cl)cc(C)cc1S(=O)(=O)O (stereo not given) | > 100 µM | > 100 µM | > 100 µM | > 100 µM | > 100 µM | > 100 µM | > 100 µM | 42.8 µM |  |  |  |  |  |  |  |  |  |  | 
COc1cc(C2(C)SCCCS2)c(I)c(OC)c1OC | > 100 µM | > 100 µM | > 100 µM | > 100 µM | > 100 µM | > 100 µM | > 100 µM | > 100 µM |  |  |  |  |  |  |  |  |  |  | 
O=c1cccccc1NCCNc1cccccc1=O | > 100 µM | > 100 µM | > 100 µM | > 100 µM | > 100 µM |  | > 100 µM | > 100 µM |  |  |  |  |  |  |  |  |  |  | 
O=C1OC(c2ccccc2)=N/C1=C/N1CCCC1C(=O)O (stereo not given) | > 100 µM | > 100 µM |  | > 100 µM | > 100 µM | > 100 µM | > 100 µM |  |  |  |  |  |  |  |  |  |  |  | 
O=C(/C=C/c1ccccc1)CCc1c(O)c2ccccc2oc1=O | > 100 µM | > 100 µM | > 100 µM | > 100 µM | > 100 µM | > 100 µM | > 100 µM |  | > 100 µM | > 100 µM |  |  |  |  |  |  |  |  | 
C[C@@H](c1ccccc1)N(CC#N)C1CCC[C@H]1O (stereo not given in full) | > 100 µM | > 100 µM | > 100 µM | > 100 µM | > 100 µM | > 100 µM |  |  |  |  |  |  |  |  |  |  |  |  | 
C=C1C(=O)O[C@H]2[C@H]1CC/C(COC(=O)/C=C/c1c[nH]c3ccccc13)=C\CC[C@@]1(C)O[C@@H]21 | 0.555 µM | 0.416 µM | 1.78 µM | 0.546 µM | 3.14 µM | 0.428 µM |  |  | 1.01 µM | 0.374 µM | 0.221 µM | 0.195 µM | 0.226 µM | 0.177 µM | 0.302 µM | 0.207 µM | 1.62 µM | 0.17 µM | 
[N-]=[N+]=Nc1c(Br)c(=O)[nH]c(=O)n1COCCO | > 100 µM | > 100 µM | > 100 µM | > 100 µM | > 100 µM | > 100 µM | > 100 µM | > 100 µM |  |  |  |  |  |  |  |  |  |  | 
O=C1C2=C(c3ccccc31)C(c1ccc(F)cc1)N1C(=O)CCSC1=N2 (stereo not given) | > 100 µM | > 100 µM | > 100 µM | > 100 µM | > 100 µM | > 100 µM | > 100 µM |  |  |  |  |  |  |  |  |  |  |  | 
O=C(Nc1ccccc1C(=O)O)C(=O)C(C(=O)c1ccccc1-c1ccccc1)C1OC(=O)c2ccccc21 (stereo not given) | 33.3 µM | 65.9 µM | > 100 µM | > 100 µM | 53.5 µM | 53.5 µM | > 100 µM | 71.1 µM |  |  |  |  |  |  |  |  |  |  | 
CCCCCCCCCCCCCCC(O)C1CCC(C(O)CCC(O)CCCCCC(O)CC2=CC(C)OC2=O)O1 (stereo not given) | 8.87 µM | 8.68 µM | 3.14 µM | 8.89 µM | 10.3 µM | 8.88 µM | 20.8 µM |  |  |  |  |  |  |  |  |  |  |  | 
CC(=O)NS(=O)(=O)c1ccc(-n2nc(-c3ccccc3)cc2C2=CC(=O)C=CC2=O)cc1 | > 100 µM | > 100 µM | 73.7 µM |  | > 100 µM |  | > 100 µM |  | > 100 µM | > 100 µM | 54.4 µM | > 100 µM | > 100 µM | > 100 µM | 16.4 µM |  | > 100 µM |  | > 100 µM
Cc1cc(Cl)ccc1NC(=O)CCCC(=O)C(C(=O)c1ccccc1)c1ccccc1 (stereo not given) | > 100 µM | > 100 µM | > 100 µM | > 100 µM | > 100 µM |  | > 100 µM |  |  |  |  |  |  |  |  |  |  |  | 
COc1cc2c3c(c1OC)Oc1ccc(cc1)CC1c4c(cc(OC)c(OC)c4Oc4ccc(cc4)CC3N(C)CC2)CCN1C (stereo not given) | 53 µM | 35.2 µM | 63.2 µM | 36.3 µM | 36.1 µM | 49.2 µM | > 100 µM | 7.24 µM |  |  |  |  |  |  |  |  |  |  | 
N[C@H](C(=O)O)[C@@H](Cl)CC(=O)O | > 100 µM | > 100 µM | > 100 µM | > 100 µM | > 100 µM | > 100 µM | > 100 µM |  |  |  |  |  |  |  |  |  |  |  | 
CNC(C)Cc1ccc(O)cc1 (stereo not given) | > 100 µM | > 100 µM | > 100 µM | > 100 µM | > 100 µM | > 100 µM | > 100 µM | > 100 µM |  |  |  |  |  |  |  |  |  |  | 
CCC(=O)OC1=CN2C(=NC(c3ccc(N)cc3)=CC2c2cc(OC)c(OC)c(OC)c2)S1 (stereo not given) | 23.4 µM | 14.2 µM | 64.7 µM | 31.9 µM | 13.1 µM | 23.3 µM | 11.2 µM |  | 14.4 µM | 21.3 µM | 4.57 µM | 3.82 µM | 2.86 µM | 4.39 µM | 3.89 µM | 4.14 µM | 3.48 µM | 5.12 µM | 2.91 µM
O=C(O)c1cc2c(c3ccsc13)-c1ccccc1CC2 | > 100 µM | > 100 µM |  | > 100 µM | > 100 µM | > 100 µM | > 100 µM |  | > 100 µM | > 100 µM | 49.7 µM | 39.4 µM | 42 µM | 27.6 µM |  | 23.3 µM | 29.5 µM | 86.2 µM | 52 µM
CCOC(=O)NC(=O)c1cn(C2OC(CO)C(O)C2O)c(=O)[nH]c1=O (stereo not given) | > 100 µM | > 100 µM | > 100 µM | > 100 µM | > 100 µM | > 100 µM | > 100 µM | > 100 µM |  |  |  |  |  |  |  |  |  |  | 
CCC1(CC)C(=O)[N-]C(=O)[N-]C1=O.[Au+].[Au+].c1ccc([PH+](c2ccccc2)c2ccccc2)cc1.c1ccc([PH+](c2ccccc2)c2ccccc2)cc1 | 2.14 µM |  |  |  | 2.91 µM |  |  |  |  |  | 0.911 µM |  |  |  |  |  | 1.52 µM |  | 
Cc1ccc(C)c2c1CCc1cc3ccccc3nc1-2 | > 100 µM | > 100 µM | > 100 µM | > 100 µM | > 100 µM | > 100 µM | > 100 µM |  |  |  |  |  |  |  |  |  |  |  | 
